Source: US6548472B1, “Liquid cleaning compositions comprising 2-bromo-2-nitro-1,3 propanediol” (Colgate-Palmolive Co., priority 2001, dated 2003)

System: mixture of bacteria
Assay: D-value method test (rapid preservation screening, bacteria growth detection time by conductometry)
Assay type: cell-based
Settings: FIG. 1; sodium gluconate (formula B) compared with Na4EDTA (formula A, reference)
From the text: This D-value method test is used for rapid screening. It compares the new product to a reference which gives satisfactory result in real life conditions and which must have a formula composition as close as possible to the tested product (in this example EDTA has been replaced by sodium gluconate). The tested product and the reference are inoculated by a mixture of bacteria. Once they have been inoculated the bacteria slowly disappear due to the beneficial influence of the preservative system. The longer the contact time, the lower the residual bacteria number. The better the preservation system, the lower the residual bacteria number at a given time. The inocculated products are then sampled at different times and the samples are diluted by a nutriant which helps bacteria proliferation. The time needed to detect bacteria in the diluted sample is then measured by conductometry (bacteria growth generally leads to a increase of conductivity). The longer the detection time in sample diluted by nutrient, the lower the residual alive bacteria number after sampling, the better the preservative system.

## O=C([O-])[C@H](O)[C@@H](O)[C@H](O)[C@H](O)CO.[Na+] [sodium gluconate]
  D bacteria values: Myacid BT potentiator performance: superior Myacid BT potentiator
